# Like-named read-outs stand apart in the source and are kept apart here.
# What was measured:
# [1] = tested on: M. abscessus ATCC 19977; settings: positive control, earlier report; cited from earlier work
# [2] = tested on: M. abscessus strain M110 (pre-induced); assay: microbe, parasite or virus in culture; format: cell-based, Mycobacterium abscessus
# Description: (§1) The FICI was calculated by summing the FIC of Rfx and the FIC of Clr. FIC of Clr is the MIC of Clr in the presence of Rfx divided by MIC of Clr alone. FIC of Rfx was similarly calculated.
# (§2) To characterize the interaction between Clr and Rfx, checkerboard synergy assays were performed on pre-induced Clr-resistant M. abscessus. The fractional inhibitory concentration index (FICI) obtained from the checkerboard assay defines whether the interaction between the two compounds is either synergistic (FICI≤0.5), additive (0.5<FICI≤1.0), indifferent (1.0<FICI≤4.0), or antagonistic (FICI >4.0) (Noel D J, Keevil C W, Wilks S A. 2021. MBio 12).
# [3] = tested on: M. abscessus strain M422 (pre-induced); assay: microbe, parasite or virus in culture; format: cell-based, Mycobacterium abscessus
# Description: as §1, §2
# [4] = tested on: M. abscessus ATCC 19977 (pre-induced); assay: microbe, parasite or virus in culture; format: cell-based, Mycobacterium abscessus; settings: for Percentage of bacterial growth: clarithromycin 0 μg/ml
# Description: as §1, §2
# [5] = tested on: M. abscessus strain M422; assay: Single-concentration assay with and without clarithromycin (hit validation); format: cell-based, Mycobacterium abscessus
# Description: (§3) For checkerboard synergy assay, 3 M. abscessus strains were used: M. abscessus ATCC 19977, M. abscessus strains M422 and M110, while bactericidal activity determination and the zebrafish study were performed with M. abscessus ATCC 19977. All three strains of M. abscessus harbor the inducible clarithromycin resistance-conferring erm(41) T28 sequevar. M. abscessus strain M422 and M110 were provided by Dr. Jeanette Teo, National University Hospital, Singapore (Chew K L, et al., 2017. J Med Microbiol 66: 1443-1447). M. abscessus ATCC 19977 and M. avium ATCC 700898 were acquired from American Type Culture Collection (ATCC).
# (§4) Primary screening was carried out in 96-well flat-bottom Corning Costar cell culture plates at 50 μM compound along with 4 μg/ml of Clr in a starting inoculum of pre-induced M. abscessus cells at OD600 of 0.005 in a final volume of 100 μl. The plates were put in an airtight container with moist paper towels and incubated for 4 d at 30° C. The cultures in the wells were resuspended before OD600 was read in a BioTek Synergy 4 plate reader.
# To start the validation process, the top 10 compounds with >90% growth inhibition were chose to perform a single-concentration assay, with and without clarithromycin. Finally, the inventors obtained 7 compounds that potentiated Clr efficacy.
# [6] = tested on: M. abscessus ATCC 19977, M. abscessus strains M422 and M110; assay: Checkerboard synergy assay, statements on all 3 M. abscessus strains; format: cell-based, Mycobacterium abscessus
# Description: as §3
# (§5) With Rfx identified as the best potentiator of Clr activity, the interaction between Rfx and Clr was investigated by a checkerboard synergy approach using a broth microdilution method performed in 96-well plates. To provide a classification of the combined antibiotics based on the fractional inhibitory concentration index (FICI), this assay applied the combination of Clr and Rfx in concentrations of 0-64 μg/ml by 2-fold serial dilutions along the abscissa and ordinate, respectively. The FICI was calculated by summing the FIC of Rfx and the FIC of Clr. FIC of Clr is the MIC of Clr in the presence of Rfx divided by MIC of Clr alone. FIC of Rfx was similarly calculated.
# as §2
# [7] = tested on: M. avium ATCC 700898 (uninduced); assay: Checkerboard synergy assay; format: cell-based, Mycobacterium avium; settings: for MIC90: Mycobacterium avium, ATCC700898
# Description: as §5
# As both M. abscessus and M. avium are the main organism groups causing pulmonary NTM (Lim A Y H, et al., 2018. BMC Pulm Med 18 (1):85; Tan Y, et al., 2018. BMC Pulm Med 18 (1): 168), the inventors tested the combination of Clr and Rfx against M. avium in the checkerboard assay as well. With a FICI of 0.563, the interaction between Clr and Rfx was additive in M. avium.
# [8] = tested on: M. abscessus ATCC 19977; assay: Zebrafish embryo infection model; format: in vivo, zebrafish (Denio rerio); settings: 19.6 μg/ml Rfx alone, immersion for 4 days
# Source text: To visualize the bacterial infection in the zebrafish (Denio rerio), a fluorescent strain of M. abscessus ATCC 19977 containing pJKD2893:mScarlet was generated. The pJKD2893 plasmid backbone was a kind gift from Professor Timothy Stinear. The gene expressing the fluorescent protein mScarlet was amplified from μMRE135-mScarlet (Addgene #118489, Mitja Remus-Emsermann lab). The amplification product was annealed by Gibson cloning with the pJKD2893 backbone amplified from a sample of pJKD2893. The resulting plasmid, termed pJKD2893:mScarlet, was electroporated into M. abscessus ATCC 19977 at a culture density equivalent to OD600˜20 using a BioRad GenePulser Xcell set at 2.5 kV, 25 uF, and 1,000Ω. […] Colonies carrying the plasmid were identified by their fluorescence. […]
# Preparation of M. abscessus Inoculum and Zebrafish Infections Cultures of M. abscessus-pJKD2893:mScarlet in 7H9 media supplemented with 50 μg/ml kanamycin were grown to OD600 of 0.2-0.3 and concentrated to OD600 of 1 in 0.1% PBS-Tween-20. […] The actual CFU in the inoculum was determined a posteriori by injecting into 50 μl 0.1% PBS-Tween-20 and streaking on a plate. […]
# Larvae were harvested to assess the bacterial load at 5 d post-infection using a slightly modified version of the Kremer lab method (Bernut et al., Antimicrob Agents Chemother 58: 4054-4063). […] Fluorescent colonies were counted after 5-6 days. […]
# [9] = tested on: M. abscessus strain M422; assay: Primary compound screening against pre-induced bacterial cells; format: cell-based, Mycobacterium abscessus; settings: 50 μM compound with 4 μg/ml Clr
# Description: A total of 2,252 drugs/compounds comprising 1,576 FDA-approved drugs and 676 clinical compounds were purchased from MedChemExpress. The compounds were dissolved in dimethyl sulfoxide (DMSO) to a stock concentration of 10 mM. The Clr resistance in M. abscessus was induced for 3 days under 0.5 μg/ml of Clr before being subjected to compound screening.
# as §4
# A compound library consisting of 2,252 FDA-approved and clinical-stage drugs was screened against M. abscessus clinical strain M422. Bacteria were exposed to a sub-inhibitory concentration of Clr (0.5 μg/ml) for 3 days to induce Clr resistance. The test drugs were screened at 50 μM in the presence of 4 μg/ml of Clr to maintain the Clr-resistance phenotype.
# [10] = Mycobacteroides abscessus, alone, read-out: MIC90 Rfx individually
smiles,measurement,setting,value
COc1nc2ccc(Br)cc2cc1[C@@H](c1ccccc1)[C@@](O)(CCN(C)C)c1cccc2ccccc12 [Bedaquiline],efficacy against M. abscessus in zebrafish embryos,[1],demonstrated efficacy
"CO[C@H]1/C=C/O[C@@]2(C)Oc3c(C)c(O)c4c(O)c(c5c(nc6cc(C)ccn65)c4c3C2=O)NC(=O)/C(C)=C\C=C\[C@H](C)[C@H](O)[C@@H](C)[C@@H](O)[C@@H](C)[C@H](OC(C)=O)[C@@H]1C [Rifaximin, rifaximin]",MIC90 Rfx in combination,[2],4 µg/mL
same,MIC90,[2]; [10],128 µg/mL
same,MIC90 Rfx in combination,[3],1 µg/mL
same,MIC90,[3]; [10],16 µg/mL
same,MIC90,"[4]; Mycobacteroides abscessus, ATCC19977, read-out: MIC90 Rfx individually",128 µg/mL
same,MIC90 Rfx in combination,[4]; in combination with Clr,4 µg/mL
same,% inhibition with 0.5 μg/ml Clr,[5]; compound combined with clarithromycin,100%
same,% inhibition with compound alone,[5]; without clarithromycin,85.6%
same,concentration at which significant synergistic effects with clarithromycin are shown,[6]; Table 2,≥ 1 µg/mL
same,MIC of Rfx,[6]; tested alone,extremely high
same,MIC90,"[7]; alone, read-out: MIC90 Rfx individually",0.03 µg/mL
same,MIC90,[7]; read-out: MIC90,< 0.1 µg/mL
same,MIC90 Rfx in combination,[7]; in combination with Clr,0.015 µg/mL
same,CFU reduction,[8],did not show any CFU reduction
CO[C@H]1/C=C/O[C@@]2(C)Oc3c(C)c(O)c4c(c3C2=O)C2=NC3(CCN(CC(C)C)CC3)NC2=C(NC(=O)/C(C)=C\C=C\[C@H](C)[C@H](O)[C@@H](C)[C@@H](O)[C@@H](C)[C@H](OC(C)=O)[C@@H]1C)C4=O [rifabutin],Percentage of bacterial growth,[4]; partner antibiotic 1 μg/ml,105.5%
same,Percentage of bacterial growth,[4]; partner antibiotic 2 μg/ml,101.8%
same,Percentage of bacterial growth,[4]; partner antibiotic 4 μg/ml,99.4%
same,Percentage of bacterial growth,[4]; partner antibiotic 8 μg/ml,100.2%
same,Percentage of bacterial growth,[4]; partner antibiotic 16 μg/ml,79.1%
same,Percentage of bacterial growth,[4]; partner antibiotic 32 μg/ml,9.2%
same,Percentage of bacterial growth,[4]; partner antibiotic 64 μg/ml,1.2%
same,hit status in primary screening,[9],one of the top hits

# — US20260130932A1, “NOVEL COMBINATION OF RIFAXIMIN AND CLARITHROMYCIN FOR TREATING MULTIDRUG-RESISTANT MYCOBACTERIUM ABSCESSUS” (priority 2022, published 2026)
